Experimental data from US5759835A, “Bacterial nitric oxide synthase” (priority 1995, dated 1998).
“Also recorded” adds a separate entry of the source.

Assays:
NOSNoc [1] = assay: Stoichiometry of product formation and cofactor utilization by NOSNoc; assay type: biochemical, Nocardia species (NRRL 5646); conditions: compound as substrate for NOSNoc
Procedure: NOS activity was also determined by measuring the decrease in absorbance at 340 nm as NADPH was consumed during the conversation of L-arginine to L-citrulline by NOS. Furfine, E. S., et al. (1993) Biochemistry 32, pp. 8512-8517.
Bredt, D. S., and Snyder, S. H. (1989) Proc. Natl. Acad. Sci. U.S.A. 86, pp. 9030-9033. Reaction samples (50 μl, 100 μM arginine and 1 μCi radioactivity)in 2 ml of stop buffer (20 mM HEPES and 2 mM EDTA, pH 5.5) were applied to a fresh 1-ml Dowex AG50W-X8 (Na+ form, 100-200 mesh) column. Labeled citrulline was eluted with 2 ml of distilled water, and the eluates were collected. Aliquots of 0.1 ml of eluate were dissolved in 5 ml of Budget Solve cocktail in 10 ml scintillation vials, and radioactivity was measured in a Beckman LS 3801 liquid scintillation system.
Nitrite was measured spectrophotometrically using Griess reagent. Green, L. C., et al. (1982) Anal. Biochem. 126, pp. 131-138. […] After standing for 15-30 minutes at room temperature, the absorbance at 540 nm was measured. Nitrite concentrations were estimated by comparison with a standard curve at the range of 0-1.0 μg/ml prepared with standard sodium nitrite in water.
Oxygen concentrations were calculated based on the deflection of the chart recorder versus 206 μM oxygen-total oxygen content in the reaction vessel. Koppenol, W. H. (1985) Adv. Free Radical Biol. Med. 1, 91-131.
Stoichiometric determinations of oxygen consumed, NADPH oxidized, NO and citrulline formed, and kinetic experiments were carried out to confirm that L-NOHA is an intermediate in the biosynthesis of nitric oxide from L-arginine.

NOSNoc [2] = assay: NOSNoc activity, oxyhemoglobin spectrophotometric assay (kinetics and inhibition); assay type: biochemical, Nocardia species (NRRL 5646); conditions: for Vmax / Km: compound as substrate of NOSNoc; for Ki: model of competitive inhibition; for Mode of inhibition of NO synthesis by NOSNoc: with either L-arginine or L-NOHA as substrate
Procedure: Assays for NOS activity were carried out using a Shimadzu 160 spectrophotometer by observing the increase in absorbance at 401 nm at 25° C. A typical sample assay contained 50 mM potassium phosphate buffer (pH 7.5), 4 μM oxyHb, 100 μM L-arginine of L-NOHA (for kinetic experiments), 100 μM NADPH, 1 mM CaCl2, 10 μM FAD, 10 μM FMN, 80 μM H4 B, 150 μM DTT and 0.1-2 μg enzyme in a final volume of 1 ml. For assays, the reference cuvette contained all components except for L-arginine or L-NOHA. All assays were initiated by adding enzyme.

[3] = EZ-FIT fit, table values are the mean S.D. of three determinations
[4] = Table III, EZ-FIT fit, mean S.D. of three determinations
[5] = L-Arginine as substrate, mean S.D. of three determinations
[6] = N^G -Hydroxy-L-arginine as substrate, mean S.D. of three determinations

Row | Structure (SMILES) | Citrulline formation (NOSNoc [1]) | NADPH consump (NOSNoc [1]) | Nitrile formation (NOSNoc [1]) | Oxygen consump (NOSNoc [1]) | Vmax (NOSNoc [2]) | Km (NOSNoc [2]; [3]) | Vmax (NOSNoc [2]; [4]) | Km (NOSNoc [2]; value as printed in the discussion) | Ki (NOSNoc [2]; [5]) | Ki (NOSNoc [2]; [6]) | Mode of inhibition of NO synthesis by NOSNoc (NOSNoc [2]; listed as L-NMA) | Mode of inhibition of NO synthesis by NOSNoc (NOSNoc [2]; listed as L-NNA)
1 | N=C(N)NCCC[C@H](N)C(=O)O [L-Arginine] | 4.21 ± 0.17 nmol | 8.77 ± 0.32 nmol | 4.63 ± 0.28 nmol | 8.89 ± 0.33 nmol | 607 nmol/min/mg protein | 5.7 µM | 274 ± 13 nmole/min/mg protein |  |  |  |  | 
2 | N=C(NO)NCCC[C@H](N)C(=O)O [N^G -Hydroxy-L-arginine] | 4.54 ± 0.21 nmol | 4.38 ± 0.24 nmol | 4.57 ± 0.20 nmol | 4.46 ± 0.16 nmol | 549 nmol/min/mg protein | 15.8 µM | 303 ± 15 nmole/min/mg protein | 15.8 µM |  |  |  | 
3 | CNC(=N)NCCC[C@H](N)C(=O)O [N^G -methyl-L-arginine] |  |  |  |  |  |  |  |  | 6.2 ± 0.4 µM | 21.4 ± 1.2 µM | typical competitive inhibition; also recorded: reversible competitive inhibitors | 
4 | N=C(NCCC[C@H](N)C(=O)O)N[N+](=O)[O-] [N^G -nitro-L-arginine] |  |  |  |  |  |  |  |  | 9.8 ± 0.6 µM | 21.4 ± 1.2 µM |  | typical competitive inhibition; also recorded: reversible competitive inhibitors
